Experimental data as given in patent US5250554A, “Benzimidazole derivatives useful as angiotensin II inhibitors” (Takeda Chemical Industries, Ltd., priority 1989, dated 1993).
Where a name gives a salt, the structure may show the parent alone. Read-outs that look alike come from different tables or passages of the source.

Experiments:
[1] = target: T1, A-II receptor (Bos taurus, UniProt P25104); assay: Inhibition of binding of angiotensin-II to angiotensin receptor (radioreceptor assay, 125I-A-II); parameters: species or system bovine (membrane fraction of bovine adrenal cortex); conditions: for inhibition at 10 µM: read-out: Radioreceptor assay, inhibition of A-II binding, 1 × 10^-5 M; for inhibition at 1 µM: read-out: Radioreceptor assay, inhibition of A-II binding, 1 × 10^-6 M
T1 construct: An A-II receptor was prepared from the membrane fraction of bovine adrenal cortex; from tissue; host or cells: bovine adrenal cortex, membrane fraction
T1 sequence (P25104 1-359): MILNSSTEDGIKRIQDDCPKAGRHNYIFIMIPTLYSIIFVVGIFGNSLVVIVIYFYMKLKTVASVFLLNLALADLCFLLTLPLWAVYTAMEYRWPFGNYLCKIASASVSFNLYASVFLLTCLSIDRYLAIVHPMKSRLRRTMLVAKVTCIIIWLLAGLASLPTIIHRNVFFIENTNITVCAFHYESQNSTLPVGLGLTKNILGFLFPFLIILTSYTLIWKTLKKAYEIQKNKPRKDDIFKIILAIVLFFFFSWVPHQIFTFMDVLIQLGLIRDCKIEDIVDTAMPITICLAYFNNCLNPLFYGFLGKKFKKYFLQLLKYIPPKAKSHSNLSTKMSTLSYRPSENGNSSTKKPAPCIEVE
Description: Inhibition of binding of angiotensin-II to angiotensin receptor
An A-II receptor was prepared from the membrane fraction of bovine adrenal cortex.

[2] = tested on: pressor action of A-II; assay: Inhibitory effect on pressor action of A-II (oral drug, i.v. A-II 100 ng/kg); type: in vivo, Jcl:SD rats (9 week old, male); conditions: rats, A-II 100 ng/kg i.v.; for inhibition in vivo at 3 mg/kg / inhibition in vivo at 30 mg/kg: Rattus norvegicus, po; for inhibition in vivo at 3 mg/kg: read-out: Pressor response to A II (p.o.), 3 mg/kg (percent inhibition); for inhibition in vivo at 30 mg/kg: read-out: Pressor response to A II (p.o.), 30 mg/kg (percent inhibition)
From the text: Inhibitory effect of the compound of this invention on pressor action of A-II
Jcl:SD rats (9 week old, male) were used. On the day prior to that of the experiment, these animals were applied with cannulation into the femoral artery and vein under anesthesia with pentobarbital Na. The animals were fasted but allowed free access to drinking water until the experiment was started. On the day of conducting the experiment, the artery cannula was connected with a blood-pressure transducer, and the average blood pressure was recorded by means of polygraph. […] The drugs were orally administered, and then, at each point of the measurement, A-II was administered intravenously, and the pressor action was similarly measured. By comparing the pressor action before and after administration of the drug, the percent inhibition by the drug on A-II-induced pressor action was evaluated.

[3] = tested on: angiotensin II; conditions: as reported; cited from earlier work
[4] = 1 × 10^-5 M, bovine adrenal cortex membrane, 125I-A-II, 1 h room temperature
[5] = 1 × 10^-6 M, bovine adrenal cortex membrane, 125I-A-II, 1 h room temperature

| Compound | inhibition in vivo at 3 mg/kg ([2]; 3 mg/kg p.o.) [%] | inhibition at 10 µM [1, 4] [%] | inhibition at 1 µM [1, 5] [%] | inhibition in vivo at 30 mg/kg ([2]; 30 mg/kg p.o.) [%] | other results |
| --- | --- | --- | --- | --- | --- |
| CCCCc1nc2cccc(COC)c2n1Cc1ccc(-c2ccccc2-c2nnn[nH]2)cc1 [Working Example 19, 2-butyl-7-methoxymethyl-1-[[2'-(1H-tetrazol-5-yl)biphenyl-4-yl]methyl]benzimidazole sodium salt] | 30 to 50 |  |  |  | inhibition at 10 µM [1]: 90%; inhibition at 1 µM [1]: 60% |
| CCc1nc2cccc(C(=O)O)c2n1Cc1ccc(-c2ccccc2-c2nn[nH]n2)cc1 [Working Example 27] | > 70 | 96 | 91 | > 70 |  |
| CC(C)c1nc2cccc(C(=O)O)c2n1Cc1ccc(-c2ccccc2-c2nnn[nH]2)cc1 [Working Example 28, 2-Isopropyl-1-[[2'-(1H-tetrazol-5-yl)biphenyl-4-yl]methyl]benzimidazole-7-carboxylic acid] | 30 to 50 | 98 | 88 |  |  |
| CCCCc1nc2cccc(C(=O)O)c2n1Cc1ccc(-c2ccccc2-c2nn[nH]n2)cc1 [Working Example 29, 2-Butyl-1-[[2'-(1H-tetrazol-5-yl)biphenyl-4-yl]methyl]benzimidazole-7-carboxylic acid 2.potassium salt] |  |  |  |  | Radioreceptor assay, inhibition of A-II binding, 1 × 10^-5 M [1, 4]: 87; Radioreceptor assay, inhibition of A-II binding, 1 × 10^-6 M [1, 5]: 60; Pressor response to A II (p.o.), 3 mg/kg (percent inhibition) ([2]; 3 mg/kg p.o.): +++ (+++ ≥70%); Pressor response to A II (p.o.), 30 mg/kg (percent inhibition) ([2]; 30 mg/kg p.o.): +++ (+++ ≥70%) |
| CCCc1nc2cccc(C(=O)OC)c2n1Cc1ccc(-c2ccccc2-c2nnn[nH]2)cc1 [Working Example 31, Methyl 2-propyl-1-[[2'-(1H-tetrazol-5-yl)biphenyl-4-yl)methyl]benzimidazole-7-carboxylate] | > 70 | 92 | 78 | > 70 |  |
| CCCCc1nc2cccc(C(=O)OC)c2n1Cc1ccc(-c2ccccc2-c2nnn[nH]2)cc1 [Working Example 34, Methyl 2-butyl-1-[[2'-(1H-tetrazol-5-yl)biphenyl-4-yl]methyl]benzimidazole-7-carboxylate] | > 70 | 90 | 66 | > 70 |  |
| CCCCc1nc2cccc(C(=O)OCOC(=O)C(C)(C)C)c2n1Cc1ccc(-c2ccccc2-c2nn[nH]n2)cc1 [Working Example 36] | > 70 | 95 | 86 | > 70 |  |
| CCCCc1nc2cccc(C(=O)OC(C)OC(=O)OC3CCCCC3)c2n1Cc1ccc(-c2ccccc2-c2nn[nH]n2)cc1 (centres unmarked) [Working Example 37] | > 70 | 94 | 65 | > 70 |  |
| CCCCc1nc2cccc(C(=O)OCc3oc(=O)oc3C)c2n1Cc1ccc(-c2ccccc2-c2nn[nH]n2)cc1 [Working Example 39] | > 70 | 97 | 83 | > 70 |  |
| COCc1nc2cccc(C(=O)O)c2n1Cc1ccc(-c2ccccc2-c2nnn[nH]2)cc1 [Working Example 49, 2-Methoxymethyl-1-[[2'-(1H-tetrazol-5-yl)biphenyl-4-yl]methyl]benzimidazole-7-carboxylic acid] | > 70 | 73 | 35 | > 70 |  |
| CSCc1nc2cccc(C(=O)O)c2n1Cc1ccc(-c2ccccc2-c2nnn[nH]2)cc1 [Working Example 51, 2-Methylthiomethyl-1-[[2'-(1H-tetrazol-5-yl)biphenyl-4-yl]methyl]benzimidazole-7-carboxylic acid] | > 70 | 76 | 45 | > 70 |  |
| CCCCc1nc2ccc(OC)cc2n1Cc1ccc(-c2ccccc2-c2nn[nH]n2)cc1 [compound 19, reference compound] | < 30 | 88 | 47 |  |  |
| CCCCc1nc2ccc(Cl)cc2n1Cc1ccc(-c2ccccc2-c2nn[nH]n2)cc1 [compound 21, 2-Butyl-6-chloro-1-[[2,-(1H-tetrazol-5-yl)biphenyl-4-yl]methyl]benzimidazol, reference compound] |  | 79 | 22 | < 30 |  |
| CCCCc1nc2c(C(N)=O)cccc2n1Cc1ccc(-c2ccccc2-c2nnn[nH]2)cc1 [compound 30, 2-Butyl-1-[[2'-(1H-tetrazol-5-yl)biphenyl-4-yl]methyl]benzimidazole-4-carboxamide, reference compound] | < 30 | 40 | 1 | < 30 |  |
| CCCCc1nc2cc(C(=O)O)ccc2n1Cc1ccc(-c2ccccc2-c2nnn[nH]2)cc1 [compound 44, 2-Butyl-1-[[2'-(1H-tetrazol-5-yl)biphenyl-4-yl]methyl]benzimidazole-5-carboxylic acid, reference compound] | < 30 | 66 | 13 |  |  |
| CCCCc1nc2ccc(C(=O)OC)cc2n1Cc1ccc(-c2ccccc2-c2nnn[nH]2)cc1 [compound 49, Methyl 2-butyl-1-[[2'-(1H-tetrazol-5-yl)biphenyl-4-yl]methyl]benzimidazole-6-carboxylate, reference compound] | < 30 | 94 | 77 | < 30 |  |
| CCCCc1nc2ccc(C(=O)O)cc2n1Cc1ccc(-c2ccccc2-c2nn[nH]n2)cc1 [compound 50, reference compound] | < 30 | 53 | 7 | < 30 |  |
| CNCC(=O)N[C@@H](CCCN=C(N)N)C(=O)N[C@H](C(=O)N[C@@H](Cc1ccc(O)cc1)C(=O)N[C@H](C(=O)N[C@@H](Cc1cnc[nH]1)C(=O)N1CCC[C@H]1C(=O)N[C@@H](C)C(=O)O)C(C)C)C(C)C [saralasin] |  |  |  |  | angiotensin II antagonism [3]: potent angiotensin II antagonism |
| [Sar^1, Ala^8 ]AII |  |  |  |  | angiotensin II antagonism [3]: potent angiotensin II antagonism |
